{
  "source": "paper PMC11921344",
  "about": "“Antimicrobial peptide DiPGLa-H exhibits the most outstanding anti-infective activity among the PGLa variants based on a systematic comparison” (Applied and Environmental Microbiology, 2025)",
  "key": {"E. coli K88 [1]": {"system": "E. coli K88", "test": "Time-kill (bactericidal) curve", "format": "cell-based, Escherichia coli", "settings": "four times MIC, TSB, 37°C", "procedure": "(§1) The antibacterial activity was evaluated using a standard MIC and MBC assay according to the National Committee for Clinical Laboratory Standards (NCCLS). MIC, MBC assay, and time-kill curves for the optimal peptide are provided in the Supplementary Materials.\n(§2) The bactericidal curve of the optimal peptide was further determined. […] Each test was replicated at least 3 times."}, "S. aureus Mu50": {"system": "S. aureus Mu50", "test": "Time-kill (bactericidal) curve", "format": "cell-based, Staphylococcus aureus MRSA", "settings": "four times MIC, TSB, 37°C", "procedure": "as §1, §2"}, "A. baumannii ATCC19606": {"system": "A. baumannii ATCC19606", "format": "cell-based, Acinetobacter baumannii", "procedure": "as §1\n(§3) Antimicrobial Activity Assays. The antibacterial activity of the peptides was determined using a method designed from the National Committee for Clinical Laboratory Standards (NCCLS) in the United States. All the strains used in the experiment are preserved in the laboratory. Briefly, log phase bacterial cells were diluted in MHB to a final concentration of 0.5-1x10^5 CFU/mL. Subsequently, 50μL of different concentrations of polypeptides were incubated with 50 μL of bacterial solution in sterile 96-well plates. In the minimum inhibitory concentration (MIC) assay, the plate was incubated at 37°C for 24 h, and the minimum inhibitory concentration (MIC) was determined by the absorbance at 492 nm of the microplate reader, and the minimum inhibitory concentration (MIC) inhibited 95% of bacteria grow. Determination of minimum bactericidal concentration: the plate was incubated at 37°C for 4 hours, 50 μL of the mixture was taken out of each well, diluted with an appropriate amount of PBS, smeared on the agar plate, and cultured overnight. Colonies were counted and the initial CFU/well was retrospectively calculated the following day. The lowest concentration of peptide that kills 99.9% of bacterial cells is the minimum bactericidal concentration (µM), Each test was replicated at least 3 times."}, "E. coli K88 [2]": {"system": "E. coli K88", "test": "ROS generation (DCFH-DA)", "format": "cell-based, Escherichia coli", "settings": "8 µM DiPGLa-H, 1 h 37°C, DCFH-DA 10 µM", "procedure": "2′,7′-Dichlorofluorescin diacetate (DCFH-DA) was used to determine the intracellular production of ROS as previously described. S. aureus Mu50 and E. coli K88 cells were diluted until OD600 = 0.4 and incubated in different concentrations of peptide at 37°C for 1 h. Next, the mixed solution was incubated with 10 µM DCFH-DA at 37°C for 1 h. The fluorescence (excitation wavelength = 488 nm, emission wavelength = 525 nm) was monitored with an Infinite 200 pro fluorescence spectrophotometer (Tecan, China). Each test was measured in triplicate and tested twice."}, "E. coli K88 [3]": {"system": "E. coli K88", "test": "Heat, pH and salt sensitivity assay (MIC)", "format": "cell-based, Escherichia coli", "settings": "salts of Table S2", "procedure": "To assess the stability of the peptides in physiological conditions, the peptides were incubated with E. coli K88 and S. aureus Mu50 in the presence of salts (150 mM NaCl, 4.5 mM KCl, 6 µM NH4Cl, 8 µM ZnCl2, 1 mM MgCl2, 4 µM FeCl3, and 2.5 µM CaCl2) in accordance with a previously reported protocol. To determine the thermal stability of the peptides, the peptides were pretreated at 100°C for 30 min, 60 min, and 90 min and cooled on ice for 10 min. The effect of acid and base on the antimicrobial activity was measured by treating the peptides for 2 h at pH of 2, 4, 10, and 12 in 10 mM sodium phosphate buffer adjusted with HCl or NaOH."}, "P. aeruginosa ATCC27853": {"system": "P. aeruginosa ATCC27853", "format": "cell-based, Pseudomonas aeruginosa", "procedure": "as §1, §3"}, "[4]": {"system": "P. aeruginosa ATCC27853 biofilm", "test": "Anti-biofilm assay (crystal violet)", "format": "cell-based, Pseudomonas aeruginosa", "procedure": "The anti-biofilm activity of DiPGLa-H was evaluated using a crystal violet staining method. Briefly, 100 µL of bacterial suspension at 1 × 10^6 CFU/mL was incubated with DiPGLa-H (0–64 µM) for 48 h. The biofilm formed was stained with 1% crystal violet, and the absorbance was measured at 595 nm. The biofilm formation and mature biofilm removal assays were conducted. For biofilm formation, a bacterial suspension was incubated with DiPGLa-H, and biofilm content was quantified. To assess mature biofilm removal, pre-formed biofilms were treated with DiPGLa-H for 24 h, followed by quantification. Detailed Protocol in Supplementary Materials.\nTo test the ability of DiPGLa-H to […] on the test bacteria, a single colony was inoculated in MHB medium and incubated overnight at 37 °C and 180 r/min, and 1% of the bacterial suspension was taken and continued to be amplified and incubated for 2 h. […] The biofilm content was analyzed by measuring the absorbance value at 595 nm, and anhydrous ethanol was used as a blank control. […]"}, "Gram-negative bacteria": {"system": "Gram-negative bacteria", "test": "Geometric mean MIC and therapeutic index, Gram-negative", "format": "cell-based", "settings": "geometric mean of the peptide MICs against Gram-negative strains", "procedure": "as §1, §3"}, "S. aureus": {"system": "S. aureus", "settings": "one range printed for E. coli and S. aureus; cited from earlier work", "procedure": "(§4) PGLa, an amphibian 21-residue cationic AMP, with a net charge of +4, was found in the skin of the toad Xenopus laevis ([6]). The minimum inhibitory concentration (MIC) of PGLa against Escherichia coli 25922 and S. aureus 25923 were 10–50 μg/mL and 50–100 μg/mL, respectively ([6]). […] The rep ..."}, "E. coli": {"system": "E. coli", "settings": "one range printed for E. coli and S. aureus; cited from earlier work", "procedure": "as §4"}},
  "note": "Where no end group is shown, it is not given here.",
  "data": [
    {"substance": "KIAKVALKALKIAKVALKAL-NH2 (C-terminus assumed) [DiPGLa-H]", "values": [
      {"measurement": "time to complete eradication of E. coli K88", "setting": "E. coli K88 [1]", "result": "≤ 30", "unit": "min"},
      {"measurement": "time to complete eradication of S. aureus Mu50", "setting": "S. aureus Mu50", "result": 6, "unit": "h"},
      {"measurement": "MBC A. baumannii ATCC19606", "setting": "A. baumannii ATCC19606; ATCC19606, 4 h", "result": 4, "unit": "µM"},
      {"measurement": "MIC A. baumannii ATCC19606", "setting": "A. baumannii ATCC19606; ATCC19606, 24 h", "result": 1, "unit": "µM"},
      {"measurement": "elevation of ROS production vs untreated", "setting": "E. coli K88 [2]", "result": 11.3, "unit": "fold"},
      {"measurement": "elevation in MIC values by cationic ions, E. coli K88", "setting": "E. coli K88 [3]", "result": "2–8 times"},
      {"measurement": "MBC P. aeruginosa ATCC27853", "setting": "P. aeruginosa ATCC27853; ATCC27853, 4 h", "result": 2, "unit": "µM"},
      {"measurement": "MIC P. aeruginosa ATCC27853", "setting": "P. aeruginosa ATCC27853; ATCC27853, 24 h", "result": 2, "unit": "µM"},
      {"measurement": "inhibition of biofilm formation", "setting": "[4]; 1×10^6 CFU/mL, DiPGLa-H 0-64 µM, 48 h, crystal violet, 595 nm", "result": "inhibition at higher concentrations"},
      {"measurement": "biofilm elimination capacity", "setting": "[4]; pre-formed biofilm treated with DiPGLa-H for 24 h, similar concentrations (above 16 µM)", "result": "less pronounced"},
      {"measurement": "GMMIC Gram-negative", "setting": "Gram-negative bacteria", "result": 2.82, "unit": "µM"},
      {"measurement": "MIC S. aureus", "setting": "S. aureus", "result": "0.75 to 1.5", "unit": "µM"},
      {"measurement": "MIC E. coli", "setting": "E. coli", "result": "0.75 to 1.5", "unit": "µM"}
    ]}
  ]
}
